Laboratory results as given in patent publication US10383880B2 (Reset Therapeutics, Inc., priority 2012, dated 2019).

The compounds below were run on Per2-dLuc U2OS reporter cells (assay: Per2 assay for evaluating the potency of test compounds (high-throughput circadian assay)). Conditions: Homo sapiens, U2OS, stable U2OS reporter cells harboring Per2-dLuc; luminescence monitored over 4-5 days at 35° C.
Type: cell-based
Method in brief: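 After 24 h culture, U2OS cells carrying Per2-dLuc were serum-shock synchronized into explant medium with 1.0 mM luciferin (10 mM HEPES pH 7.0) and compound in 0.5% DMSO. Luminescence was recorded over 4–5 days at 35 °C. Circadian period, amplitude and phase were derived, and EC50 calculated.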

Question: How did the EC50 turn out when `CS(=O)(=O)N(Cc1ccccc1)CC(O)Cn1c2ccccc2c2ccccc21` (centres unmarked) [Compound 44, N-(3-(9H-Carbazol-9-yl)-2-hydroxypropyl)-N-benzylmethanesulfonamide] was run?
Answer: Its EC50 is 8270 nM.

Question: How did the EC50 turn out when `CC(O)(CN1CCN(C2CCCC2)S1(=O)=O)Cn1c2ccc(F)cc2c2cc(F)ccc21` (centres unmarked) [Compound 232] was run?
Answer: The EC50 was 2580 nM.

Question: How did the EC50 turn out when `CCCS(=O)(=O)N(Cc1ccco1)CC(O)Cn1c2ccccc2c2ccccc21` (centres unmarked) [Compound 3, N-(3-(9H-Carbazol-9-yl)-2-hydroxypropyl)-N-(furan-2-ylmethyl)propane-1-sulfonamide] was run?
Answer: The EC50 was 650 nM.

Question: With `COC1CCCC(N(CC(O)Cn2c3ccccc3c3ccccc32)S(C)(=O)=O)C1` (centres unmarked) [Compound 139, N-(3-(9H-Carbazol-9-yl)-2-hydroxypropyl)-N-(3-methoxycyclohexyl)methanesulfonamide] as the compound, how does the EC50 read?
Answer: The EC50 was 263 nM.

Question: How did the EC50 turn out when `CS(=O)(=O)N(CC(O)Cn1c2ccccc2c2ccccc21)C1CCCC(F)(F)C1` (centres unmarked) [Compound 134, N-(3-(9H-Carbazol-9-yl)-2-hydroxypropyl)-N-(3,3-difluorocyclohexyl)methanesulfonamide] was run?
Answer: Its EC50 is 1080 nM.

Question: `CC1(N(CC(O)Cn2c3ccccc3c3ccccc32)S(C)(=O)=O)CCC1` (centres unmarked) [Compound 138, N-(3-(9H-Carbazol-9-yl)-2-hydroxypropyl)-N-(1-methylcyclobutyl)methanesulfonamide] was tested. Which EC50 did it give?
Answer: Its EC50 is 41 nM.

Question: For `CC1CCCC(N(CC(O)Cn2c3ccccc3c3ccccc32)S(C)(=O)=O)C1` (centres unmarked) [Compound 142, N-(3-(9H-Carbazol-9-yl)-2-hydroxypropyl)-N-(3-methylcyclohexyl)methanesulfonamide], which EC50 is on record?
Answer: Its EC50 is 813 nM.

Question: For `CS(=O)(=O)NCC(O)Cn1c2ccc(F)cc2c2ccc(F)cc21` (centres unmarked) [Compound 168, N-(3-(2,6-Difluoro-9H-carbazol-9-yl)-2-hydroxypropyl)methanesulfonamide], which EC50 is on record?
Answer: Its EC50 is 391 nM.

Question: `CC(C)(C(O)Cn1c2ccccc2c2ccccc21)N1CCCS1(=O)=O` (centres unmarked) [Compound 243, 2-(4-(9H-Carbazol-9-yl)-3-hydroxy-2-methylbutan-2-yl)-isothiazolidine-1,1-dioxide] was tested. Which EC50 did it give?
Answer: Its EC50 is 42 nM.

Question: For `CN1CCCN(CC(O)Cn2c3ccc(F)cc3c3cc(F)ccc32)S1(=O)=O` (centres unmarked) [Compound 169, 2-(3-(3,6-Difluoro-9H-carbazol-9-yl)-2-hydroxypropyl)-6-methyl-1,2,6-thiadiazinane-1,1-dioxide], which EC50 is on record?
Answer: The EC50 was 504 nM.

Question: For `CS(=O)(=O)N(CC(O)Cn1c2ccccc2c2ccccc21)c1cccc(C(N)=O)c1` (centres unmarked) [Compound 74, 3-(N-(3-(9H-Carbazol-9-yl)-2-hydroxypropyl)methylsulfonamido)benzamide], which EC50 is on record?
Answer: Its EC50 is 7620 nM.

Question: For `CS(=O)(=O)N(Cc1ccco1)CC(O)Cn1c2ccccc2c2cccc(F)c21` (centres unmarked) [Compound 236, N-(3-(1-Fluoro-9H-carbazol-9-yl)-2-hydroxypropyl)-N-(furan-2-ylmethyl)methanesulfonamide], which EC50 is on record?
Answer: Its EC50 is 620 nM.

Question: `CC(C)(N(CC(O)Cn1c2ccccc2c2ccccc21)S(C)(=O)=O)C(F)(F)F` (centres unmarked) [Compound 148, N-(3-(9H-Carbazol-9-yl)-2-hydroxypropyl)-N-(1,1,1-trifluoro-2-methylpropan-2-yl)methanesulfonamide] was tested. Which EC50 did it give?
Answer: Its EC50 is 489 nM.

Question: With `O=S1(=O)N(CC(O)Cn2c3ccc(F)cc3c3cc(F)ccc32)CCCN1C1CCCCC1` (centres unmarked) [Compound 222, 2-(3-(3,6-Difluoro-9H-carbazol-9-yl)-2-hydroxypropyl)-6-cyclohexyl-1,2,6-thiadiazinane-1,1-dioxide] as the compound, how does the EC50 read?
Answer: Its EC50 is 7120 nM.

Question: With `CCN(CC(O)Cn1c2ccccc2c2ccccc21)S(C)(=O)=O` (centres unmarked) [Compound 45, N-(3-(9H-Carbazol-9-yl)-2-hydroxypropyl)-N-ethylmethanesulfonamide] as the compound, how does the EC50 read?
Answer: Its EC50 is 398 nM.

Question: Which EC50 does the source give for `O=S(=O)(CCC(F)(F)F)N(Cc1ccco1)CC(O)Cn1c2ccccc2c2ccccc21` (centres unmarked) [Compound 6, N-(3-(9H-Carbazol-9-yl)-2-hydroxypropyl)-3,3,3-trifluoro-N-(furan-2-ylmethyl)propane-1-sulfonamide] here?
Answer: The EC50 was 964 nM.

Question: How did the EC50 turn out when `CCCN(CC(O)Cn1c2cc(F)ccc2c2ccc(F)cc21)S(C)(=O)=O` (centres unmarked) [Compound 157, N-(3-(2,7-Difluoro-9H-carbazol-9-yl)-2-hydroxypropyl)-N-propylmethanesulfonamide] was run?
Answer: The EC50 was 895 nM.

Question: How did the EC50 turn out when `CS(=O)(=O)N(CC(O)Cn1c2ccccc2c2ccccc21)c1ccc(Br)cc1` (centres unmarked) [Compound 28, N-(3-(9H-Carbazol-9-yl)-2-hydroxypropyl)-N-(4-bromophenyl)methanesulfonamide] was run?
Answer: The EC50 was 2090 nM.

Question: How did the EC50 turn out when `CCOCc1ccc(N(CC(O)Cn2c3ccc(F)cc3c3cc(F)ccc32)S(C)(=O)=O)cc1` (centres unmarked) [Compound 208, N-(3-(3,6-Difluoro-9H-carbazol-9-yl)-2-hydroxypropyl)-N-(4-(ethoxymethyl)phenyl)methanesulfonamide] was run?
Answer: The EC50 was 4710 nM.

Question: With `O=S(=O)(CC1CCOC1)N(Cc1ccco1)CC(O)Cn1c2ccccc2c2ccccc21` (centres unmarked) [Compound 17, N-(3-(9H-Carbazol-9-yl)-2-hydroxypropyl)-N-(furan-2-ylmethyl)-1-(tetrahydrofuran-3-yl)methanesulfonamide] as the compound, how does the EC50 read?
Answer: The EC50 was 2490 nM.

Question: With `CS(=O)(=O)N1CCCC1C(O)Cn1c2ccccc2c2ccccc21` (centres unmarked) [Compound 241, 2-(9H-Carbazol-9-yl)-1-(1-(methyl-sulfonyl)-pyrrolidin-2-yl)ethanol] as the compound, how does the EC50 read?
Answer: Its EC50 is 488 nM.

Question: `CN1CCN(CC(C)(O)Cn2c3ccc(F)cc3c3cc(F)ccc32)S1(=O)=O` (centres unmarked) [Compound 174] was tested. Which EC50 did it give?
Answer: The EC50 was 80 nM.

Question: With `CN1CCN(CC(O)Cn2c3ccc(F)cc3c3cc(F)ccc32)S1(=O)=O` (centres unmarked) [Compound 173] as the compound, how does the EC50 read?
Answer: Its EC50 is 86 nM.

Question: For `O=S1(=O)CCCN1CC(O)Cn1c2cccc(F)c2c2c(F)cccc21` (centres unmarked) [Compound 106, N-(3-(4,5-Difluoro-9H-carbazol-9-yl)-2-hydroxypropyl)-isothiazolidine-1,1-dioxide], which EC50 is on record?
Answer: Its EC50 is 8600 nM.

Question: For `CS(=O)(=O)N(CC(O)Cn1c2ccc(F)cc2c2cc(F)ccc21)C1CCC1` (centres unmarked) [Compound 119, N-Cyclobutyl-N-(3-(3,6-difluoro-9H-carbazol-9-yl)-2-hydroxypropyl)methanesulfonamide], which EC50 is on record?
Answer: Its EC50 is 37 nM.

Question: Which EC50 does the source give for `CS(=O)(=O)N1CCCCC1C(O)Cn1c2ccccc2c2ccccc21` (centres unmarked) [Compound 242, 2-(9H-Carbazol-9-yl)-1-(1-(methylsulfonyl)-piperidin-2-yl)ethanol] here?
Answer: The EC50 was 494 nM.

Question: `O=S1(=O)NCCN1CC(O)Cn1c2ccc(F)cc2c2cc(F)ccc21` (centres unmarked) [Compound 175] was tested. Which EC50 did it give?
Answer: Its EC50 is 35 nM.

Question: Which EC50 does the source give for `CN(CC(O)Cn1c2ccc(F)cc2c2cc(F)ccc21)S(C)(=O)=O` (centres unmarked) [Compound 89, N-(3-(3,6-Difluoro-9H-carbazol-9-yl)-2-hydroxypropyl)-N-methylmethanesulfonamide] here?
Answer: Its EC50 is 360 nM.

Question: Which EC50 does the source give for `CS(=O)(=O)N(CC(O)Cn1c2ccccc2c2ccccc21)CC1CC2CCC1C2` (centres unmarked) [Compound 75, N-(3-(9H-Carbazol-9-yl)-2-hydroxypropyl)-N-(bicyclo[2.2.1]heptan-2-ylmethyl)methanesulfonamide] here?
Answer: The EC50 was 842 nM.

Question: `CC(C)N1CCN(CC(O)Cn2c3ccc(F)cc3c3cc(F)ccc32)S1(=O)=O` (centres unmarked) [Compound 224] was tested. Which EC50 did it give?
Answer: Its EC50 is 59 nM.

Question: How did the EC50 turn out when `COCCN(CC(O)Cn1c2cc(F)ccc2c2c(F)cccc21)S(C)(=O)=O` (centres unmarked) [Compound 99, N-(3-(2,5-Difluoro-9H-carbazol-9-yl)-2-hydroxypropyl)-N-(2-methoxyethyl)methanesulfonamide] was run?
Answer: The EC50 was 3550 nM.

Question: `COC1CCCC(N(CC(O)Cn2c3ccc(F)cc3c3cc(F)ccc32)S(C)(=O)=O)C1` (centres unmarked) [Compound 198, N-(3-(3,6-Difluoro-9H-carbazol-9-yl)-2-hydroxypropyl)-N-(3-methoxycyclohexyl)methanesulfonamide] was tested. Which EC50 did it give?
Answer: The EC50 was 1230 nM.
